# Assays:
# Type in all cases: functional
# PC-3 = test: Growth inhibition of human PC3 cells assessed as cell growth at 10 uM incubated for 48 hrs by sulforhodamine B assay relative to control; conditions: PC-3, 48 h, read-out: Activity
# SNB-19 = test: Growth inhibition of human SNB19 cells assessed as cell growth at 10 uM incubated for 48 hrs by sulforhodamine B assay relative to control; conditions: SNB-19, 48 h, read-out: Activity
# SNB-75 = test: Growth inhibition of human SNB75 cells assessed as cell growth at 10 uM incubated for 48 hrs by sulforhodamine B assay relative to control; conditions: SNB-75, 48 h, read-out: Activity
# SK-MEL-5 = test: Growth inhibition of human SK-MEL-5 cells assessed as cell growth at 10 uM incubated for 48 hrs by sulforhodamine B assay relative to control; conditions: SK-MEL-5, 48 h, read-out: Activity
# CAKI-1 = test: Growth inhibition of human Caki1 cells assessed as cell growth at 10 uM incubated for 48 hrs by sulforhodamine B assay relative to control; conditions: CAKI-1, 48 h, read-out: Activity
# OVCAR-4 = test: Growth inhibition of human OVCAR4 cells assessed as cell growth at 10 uM incubated for 48 hrs by sulforhodamine B assay relative to control; conditions: OVCAR-4, 48 h, read-out: Activity
# HT-29 = test: Growth inhibition of human HT-29 cells assessed as cell growth at 10 uM incubated for 48 hrs by sulforhodamine B assay relative to control; conditions: HT-29, 48 h, read-out: Activity
# KM12 = test: Growth inhibition of human KM12 cells assessed as cell growth at 10 uM incubated for 48 hrs by sulforhodamine B assay relative to control; conditions: KM12, 48 h, read-out: Activity
# SK-MEL-2 = test: Growth inhibition of human SK-MEL-2 cells assessed as cell growth at 10 uM incubated for 48 hrs by sulforhodamine B assay relative to control; conditions: SK-MEL-2, 48 h, read-out: Activity
# RPMI-8226 = test: Growth inhibition of human RPMI8226 cells assessed as cell growth at 10 uM incubated for 48 hrs by sulforhodamine B assay relative to control; conditions: RPMI-8226, 48 h, read-out: Activity
# MDA-MB-435 = test: Growth inhibition of human MDA-MB-435 cells assessed as cell growth at 10 uM incubated for 48 hrs by sulforhodamine B assay relative to control; conditions: MDA-MB-435, 48 h, read-out: Activity
# DU-145 = test: Growth inhibition of human DU145 cells assessed as cell growth at 10 uM incubated for 48 hrs by sulforhodamine B assay relative to control; conditions: DU-145, 48 h, read-out: Activity
# SW-620 = test: Growth inhibition of human SW620 cells assessed as cell growth at 10 uM incubated for 48 hrs by sulforhodamine B assay relative to control; conditions: SW-620, 48 h, read-out: Activity
# SK-MEL-28 = test: Growth inhibition of human SK-MEL-28 cells assessed as cell growth at 10 uM incubated for 48 hrs by sulforhodamine B assay relative to control; conditions: SK-MEL-28, 48 h, read-out: Activity
# LOX IMVI = test: Growth inhibition of human LOXIMVI cells assessed as cell growth at 10 uM incubated for 48 hrs by sulforhodamine B assay relative to control; conditions: read-out: Activity
# T47D = test: Growth inhibition of human T47D cells assessed as cell growth at 10 uM incubated for 48 hrs by sulforhodamine B assay relative to control; conditions: read-out: Activity
# NCI/ADR-RES = test: Growth inhibition of human NCI/ADR-RES cells assessed as cell growth at 10 uM incubated for 48 hrs by sulforhodamine B assay relative to control; conditions: read-out: Activity
# RXF 393 = test: Growth inhibition of human RXF393 cells assessed as cell growth at 10 uM incubated for 48 hrs by sulforhodamine B assay relative to control; conditions: RXF 393, 48 h, read-out: Activity
# OVCAR-3 = test: Growth inhibition of human OVCAR3 cells assessed as cell growth at 10 uM incubated for 48 hrs by sulforhodamine B assay relative to control; conditions: OVCAR-3, 48 h, read-out: Activity
# U-251 = test: Growth inhibition of human U251 cells assessed as cell growth at 10 uM incubated for 48 hrs by sulforhodamine B assay relative to control; conditions: U-251, 48 h, read-out: Activity
# HOP-62 = test: Growth inhibition of human HOP62 cells assessed as cell growth at 10 uM incubated for 48 hrs by sulforhodamine B assay relative to control; conditions: HOP-62, 48 h, read-out: Activity
# HOP-92 = test: Growth inhibition of human HOP92 cells assessed as cell growth at 10 uM incubated for 48 hrs by sulforhodamine B assay relative to control; conditions: HOP-92, 48 h, read-out: Activity
# HCT-116 = test: Growth inhibition of human HCT116 cells assessed as cell growth at 10 uM incubated for 48 hrs by sulforhodamine B assay relative to control; conditions: HCT-116, 48 h, read-out: Activity
# SF-295 = test: Growth inhibition of human SF295 cells assessed as cell growth at 10 uM incubated for 48 hrs by sulforhodamine B assay relative to control; conditions: SF-295, 48 h, read-out: Activity
# A549 = test: Growth inhibition of human A549/ATCC cells assessed as cell growth at 10 uM incubated for 48 hrs by sulforhodamine B assay relative to control; conditions: A549, 48 h, read-out: Activity
# Malme-3M = test: Growth inhibition of human MALME-3M cells assessed as cell growth at 10 uM incubated for 48 hrs by sulforhodamine B assay relative to control; conditions: read-out: Activity
# TK-10 = test: Growth inhibition of human TK10 cells assessed as cell growth at 10 uM incubated for 48 hrs by sulforhodamine B assay relative to control; conditions: TK-10, 48 h, read-out: Activity
SMILES,growth at 10 µM (PC-3) [%],growth at 10 µM (SNB-19) [%],growth at 10 µM (SNB-75) [%],growth at 10 µM (SK-MEL-5) [%],growth at 10 µM (CAKI-1) [%],growth at 10 µM (OVCAR-4) [%],growth at 10 µM (HT-29) [%],growth at 10 µM (KM12) [%],growth at 10 µM (SK-MEL-2) [%],growth at 10 µM (RPMI-8226) [%],growth at 10 µM (MDA-MB-435) [%],growth at 10 µM (DU-145) [%],growth at 10 µM (SW-620) [%],growth at 10 µM (SK-MEL-28) [%],growth at 10 µM (LOX IMVI) [%],growth at 10 µM (T47D) [%],growth at 10 µM (NCI/ADR-RES) [%],growth at 10 µM (RXF 393) [%],growth at 10 µM (OVCAR-3) [%],growth at 10 µM (U-251) [%],other results
Cc1oc2ncnc(Nc3cccc(F)c3)c2c1C(=O)O,108,94.6,85.8,99.6,93.8,101,110,102,107,107,104,107,101,103,98,95.6,105,115,102,106,growth at 10 µM (HOP-62): 98.4%; growth at 10 µM (HOP-92): 89.3%; growth at 10 µM (HCT-116): 103%; growth at 10 µM (SF-295): 98.7%; growth at 10 µM (A549): 101%; growth at 10 µM (Malme-3M): 107%; growth at 10 µM (TK-10): 105%
CCOC(=O)c1c(C)oc2ncnc(Nc3ccc(F)c(Cl)c3)c12,85.6,100,113,94.5,106,118,92.8,104,95.5,101,114,103,101,110,103,83.8,107,101,116,91.8,growth at 10 µM (HOP-62): 101%; growth at 10 µM (HOP-92): 72.1%; growth at 10 µM (HCT-116): 103%; growth at 10 µM (SF-295): 97%; growth at 10 µM (A549): 86.9%; growth at 10 µM (Malme-3M): 114%; growth at 10 µM (TK-10): 114%
Cc1oc2ncnc(Nc3ccccc3)c2c1C(=O)NCCO,107,93.9,90.7,97.5,90.8,103,106,95.2,113,94.8,102,105,95.1,99,95.4,99.4,102,104,102,102,growth at 10 µM (HOP-62): 99%; growth at 10 µM (HOP-92): 88.6%; growth at 10 µM (HCT-116): 99.3%; growth at 10 µM (SF-295): 100%; growth at 10 µM (A549): 98.1%; growth at 10 µM (Malme-3M): 107%; growth at 10 µM (TK-10): 122%
Cc1oc2ncnc(Nc3cccc(F)c3)c2c1C(=O)NCCO,111,104,92.2,102,90.5,108,96.8,97.9,103,106,108,105,103,104,100,95.4,114,109,107,104,growth at 10 µM (HOP-62): 97.4%; growth at 10 µM (HOP-92): 101%; growth at 10 µM (HCT-116): 105%; growth at 10 µM (A549): 91%; growth at 10 µM (Malme-3M): 118%; growth at 10 µM (TK-10): 90.1%
CCOC(=O)c1c(C)oc2ncnc(Nc3ccc(F)cc3)c12,111,91.4,94.7,102,97.9,99.1,95.3,97.6,103,103,101,101,94.9,97.5,99.5,99.6,101,99.8,104,98,growth at 10 µM (HOP-62): 101%; growth at 10 µM (HOP-92): 90.8%; growth at 10 µM (HCT-116): 98.9%; growth at 10 µM (A549): 99.4%; growth at 10 µM (Malme-3M): 95.4%; growth at 10 µM (TK-10): 96.5%

# Reference: ChEMBL document CHEMBL4251615, “Discovery of anilino-furo[2,3-d]pyrimidine derivatives as dual inhibitors of EGFR/HER2 tyrosine kinase and their anticancer activity” (Eur J Med Chem, 2018)
